Measurements published in patent US6677315B2, “Nucleosides for imaging and treatment applications” (The United States of America as represented by the …, priority 1997, dated 2004).

How the values were obtained:
[1] = system: CEM, MOLT-4, RAJI, U-937, K-562 and L1210 cells; test: Intracellular nucleotide formation, all cell lines; type: cell-based, human; murine; conditions: incubation with 10 μM FAU for 24 hours
Experimental: (§1) The human-derived cell lines CEM, MOLT-4, RAJI, U-937, K-562 and the murine-derived L1210 were purchased from the American Type Culture Collection, Rockville, Md. Cells were grown and maintained as a suspension culture in RPMI 1640 medium containing L-glutamine and 10%(v/v) heat-inactivated fetal calf serum (BRL-GIBCO, Rockville, Md.). Penicillin-streptomycin solution (Sigma Chemical Co., St. Louis, Mo.) was added to achieve a final concentration of 100 units/mL. and 100 μg/mL respectively.
(§2) All cell lines, except for L1210, were resuspended in fresh media at 300,000 cells/mL with appropriate amount of radioactive drug. L1210 cells were resuspended at 150,000 cells/mL. […] Soluble nucleotides were determined for each cell line following exposure to 10 μM FAU. Incorporation of FAU into DNA (as FMAU) was determined over a range of FAU concentrations from 1 μM to 1 mM. […] These bases and soluble nucleotides were determined by previously reported HPLC-based methods as noted by Klecker et al. in the previously mentioned reference, “Toxicity, Metabolism, DNA Incorporation with Lack of Repair, and Lactate Production for 1-(2′-fluoro-2′-deoxy-β-D-arabinofuranosyl)-5-iodouracil in U-937 and MOLT-4-cells.” Drug incorporation into cellular DNA was determined using the equation: percent incorporation=100×([drug]/([dThd]+[drug]).

CEM cells [2] = test: Intracellular nucleotide formation and incorporation into DNA; type: cell-based, human; conditions: 10 μM FAU for 24 hours
Experimental: as §1
(§3) All cell lines, except for L1210, were resuspended in fresh media at 300,000 cells/mL with appropriate amount of radioactive drug. L1210 cells were resuspended at 150,000 cells/mL. After 24 hours at 37° C. in a humidified 5% CO2 atmosphere, cells were harvested for nucleotide measurement and DNA incorporation. Soluble nucleotides were determined for each cell line following exposure to 10 μM FAU. Incorporation of FAU into DNA (as FMAU) was determined over a range of FAU concentrations from 1 μM to 1 mM. As described previously by Klecker, R W, Katki A G, Collins J M. in “Toxicity, Metabolism, DNA Incorporation with Lack of Repair, and Lactate Production for 1-(2′-Fluoro-2′-deoxy-β-D-arabinofuranosyl)-5-iodouracil in U-937 and MOLT-4-cells”, Mol. Pharmacol. 1994; 46;1204-1209; and Speth P A J, Kinsella T J, Chang A E, Klecker R W, Belanger K. Collins J M. in “Incorporation of Iododeoxyuridine into DNA of Hepatic Metastases Versus Normal Human Liver.” Clin. Pharmacol. Ther. 1988; 44:369-75, DNase I and phosphodiesterase I were used to release the bases from DNA. These bases and soluble nucleotides were determined by previously reported HPLC-based methods as noted by Klecker et al. in the previously mentioned reference, “Toxicity, Metabolism, DNA Incorporation with Lack of Repair, and Lactate Production for 1-(2′-fluoro-2′-deoxy-β-D-arabinofuranosyl)-5-iodouracil in U-937 and MOLT-4-cells.” Drug incorporation into cellular DNA was determined using the equation: percent incorporation=100×([drug]/([dThd]+[drug]).

U-937 cells [3] = test: as above; type: cell-based, human; conditions: U-937, 10 μM FAU for 24 hours
Experimental: as §1, §3

K-562 cells [4] = test: as above; type: cell-based, human; conditions: K-562, 10 μM FAU for 24 hours
Experimental: as §1, §3

MOLT-4 cells [5] = test: as above; type: cell-based, human; conditions: MOLT-4, 10 μM FAU for 24 hours
Experimental: as §1, §3

RAJI cells [6] = test: as above; type: cell-based, human; conditions: 10 μM FAU for 24 hours
Experimental: as §1, §3

[7] = system: CEM, MOLT-4, RAJI, U-937, K-562 and L1210 cells; test: Growth inhibition, 72-hr continuous exposure, all cell lines; type: cell-based, human; murine
Experimental: as §1
(§4) All cell lines, except for L1210, were suspended in fresh media at 30,000 cells/mL. L1210 cells were suspended at 10,000 cells/mL. Cells, 2 mL, were added to each of the wells of 24-well plates and incubated with either 0 to 1000 μM of FAU or 0 to 300 μM of FMAU. Incubation was conducted at 37° C. in a humidified 5% CO2 atmosphere for 72 hours. Inhibition of cellular growth was assessed by cell counting (Elzone 180, Particle Data, Inc., Elmhurst, IL). Under these conditions, the control doubling times for CEM, MOLT-4, RAJI, U-937, and K-562 cells were 21-22 hours, while the doubling times for L1210 was 8-10 hours.

L1210 cells [8] = test: Growth inhibition, 72-hr continuous exposure; type: cell-based, murine; conditions: L1210, 100 μM, 72 hours continuous incubation
Experimental: as §1, §4

mice = test: Toxicity in mice after oral gavage for 14 days; type: in vivo; conditions: oral gavage 5 g/kg once per day for 14 days, plus 14 days observation
Experimental: (§5) The toxicity of the compounds of the present invention has been evaluated in an animal model system. FAU was administered by oral gavage to mice at a dose of 5 g/kg once per day for 14 consecutive days. After an additional 14 days of observation following this dosing period, the animals were sacrificed. […] Blood samples were obtained at various times during this treatment, to confirm that the drug was adequately absorbed. HPLC analysis of these samples indicated FAU concentrations in plasma reached maximum levels of 750 micromolar and minimum levels of 50 micromolar.

L1210 cells [9] = test: Intracellular nucleotide formation and incorporation into DNA; type: cell-based, murine; conditions: L1210, 10 μM FAU for 24 hours; incorporated as FMAU
Experimental: as §1, §2

[10] = FAU plasma concentrations in mice during oral dosing (HPLC); type: in vivo; conditions: oral gavage 5 g/kg once per day for 14 days
Experimental: as §5

CEM cells [11] = test: Growth inhibition, 72-hr continuous exposure; type: cell-based, human
Experimental: as §1, §4

U-937 cells [12] = test: Growth inhibition, 72-hr continuous exposure; type: cell-based, human; conditions: U-937, 100 μM, 72 hours continuous incubation
Experimental: as §1, §4

K-562 cells [13] = test: Growth inhibition, 72-hr continuous exposure; type: cell-based, human
Experimental: as §1, §4

MOLT-4 cells [14] = test: Growth inhibition, 72-hr continuous exposure; type: cell-based, human; conditions: MOLT-4, 100 μM, 72 hours continuous incubation
Experimental: as §1, §4

RAJI cells [15] = test: Growth inhibition, 72-hr continuous exposure; type: cell-based, human; conditions: 72 hours continuous incubation
Experimental: as §1, §4

[16] = molecular target: T1, thymidylate synthase (TS) in U-937 cell extracts (Homo sapiens, UniProt P04818); test: Methylation of FAUMP by thymidylate synthase in cell extracts (tritium release); type: biochemical; conditions: 20 μM substrate, tritiated water release
T1 construct: Cell extracts were prepared from each cell line by sonication of intact cells; endogenous in cells; host or cells: U-937 cells (sonicated extract)
T1 sequence (P04818 whole entry): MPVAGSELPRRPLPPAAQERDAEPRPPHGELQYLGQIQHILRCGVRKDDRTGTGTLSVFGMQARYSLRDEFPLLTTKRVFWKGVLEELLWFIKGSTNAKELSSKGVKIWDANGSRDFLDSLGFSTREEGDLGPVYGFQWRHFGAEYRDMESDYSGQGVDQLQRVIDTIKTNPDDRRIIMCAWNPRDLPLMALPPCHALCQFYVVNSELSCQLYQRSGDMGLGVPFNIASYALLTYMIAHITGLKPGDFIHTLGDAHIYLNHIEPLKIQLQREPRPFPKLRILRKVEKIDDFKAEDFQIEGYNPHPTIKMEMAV
Experimental: (§6) When TS adds a methyl group to the 5-position of dUMP to generate dTMP, the proton at that location is released. When [5-^3H]dUMP is the substrate, TS activity in cell extracts can be assessed by monitoring the accumulation rate of tritiated water. Here, [5-^3H]FAUMP was used as the substrate for methylation by TS, and the generation of FMAUMP was determined from the release of tritiated water. Cell extracts were prepared from each cell line by sonication of intact cells. (See: Armstrong R D, Diasio R B. “Improved Measurement of Thymidylate Synthetase Activity by a Modified Tritium-Release Assay” J. Biochem. Biophys. Methods. 1982; 6: 141-7 and Speth P A J, Kinsella T J, Chang A E, Klecker R W, Belanger K. Collins J M. “Incorporation of Iododeoxyuridine into DNA of Hepatic Metastases Versus Normal Human Liver” Clin. Pharmacol. Ther. 1988; 44:369-75.) The methyl donor was provided by 5,10-methylene tetrahydrofolate, which was generated in situ by the addition of formaldehyde to tetrahydrofolate. At various times after the addition of substrate (20 μM of either [5-^3H]dUMP or [5-^3H]FAUMP), the reaction was stopped by addition of HCl. Unreacted substrate was separated from tritiated water by adsorption onto activated charcoal. After centrifugation, an aliquot of the supernatant was counted for tritiated water.

[17] = system: thymidylate synthase (TS) in cell extracts of the other cell lines; test: Methylation of FAUMP by thymidylate synthase in cell extracts (tritium release), other cell lines; type: biochemical, human; murine; conditions: 20 μM substrate, tritiated water release
Experimental: as §6

[18] = molecular target: T2, thymidylate synthase in RAJI cells (Homo sapiens, UniProt P04818); test: Dehalogenation of IdUrd as probe for thymidylate synthase activity in situ; type: cell-based; conditions: 3 μM [3H]-IdUrd for 24 hours, fraction in DNA
T2 construct: endogenous in cells; host or cells: RAJI cells
T2 sequence (P04818 whole entry): as above
Experimental: (§7) The relative activity of thymidylate synthase was determined after incubation of cells with 3 μM [3H]-IdUrd for 24 hours. DNA was harvested, digested, and chromatographed as described above. Some IdUrd was incorporated into DNA with the iodine remaining intact on the pyrimidine ring. After conversion to IdUMP, part of the IdUrd was dehalogenated by TS to dUMP, which then was converted by TS into dTMP and subsequently incorporated into DNA, and recovered in the DNA digest as [^3H-dThd]. Relative TS activity in situ was defined as the fraction of IdUrd-derived material in DNA which was dehalogenated, i.e., ([^3H]-dThd)/([^3H]-dThd+[^3H]-IdUrd). These methods could also be used with non-radioactive IdUrd, if a stable isotopic label is used, e.g., ^13C, ^15N or ^2H. A mass spectrometric detector would be substituted for the radioactivity detector in the HPLC analysis. Unlabeled IdUrd can't be used since its dehalogenation produced unlabeled dThd, which would be indistinguishable from the endogenous pool of dThd in DNA.

[19] = molecular target: T3, thymidylate synthase in MOLT-4 cells (Homo sapiens, UniProt P04818); test: as above; type: cell-based; conditions: MOLT-4, 3 μM [3H]-IdUrd for 24 hours, fraction in DNA
T3 construct: endogenous in cells; host or cells: MOLT-4 cells
T3 sequence (P04818 whole entry): as above
Experimental: as §7

[20] = molecular target: T4, thymidylate synthase in U-937 cells (Homo sapiens, UniProt P04818); test: as above; type: cell-based; conditions: U-937, 3 μM [3H]-IdUrd for 24 hours, fraction in DNA
T4 construct: endogenous in cells; host or cells: U-937 cells
T4 sequence (P04818 whole entry): as above
Experimental: as §7

[21] = molecular target: T5, thymidylate synthase in CEM cells (Homo sapiens, UniProt P04818); test: as above; type: cell-based; conditions: 3 μM [3H]-IdUrd for 24 hours, fraction in DNA
T5 construct: endogenous in cells; host or cells: CEM cells
T5 sequence (P04818 whole entry): as above
Experimental: as §7

[22] = molecular target: T6, thymidylate synthase in L1210 cells (Mus musculus, UniProt P07607); test: as above; type: cell-based, murine; conditions: L1210, 3 μM [3H]-IdUrd for 24 hours, fraction in DNA
T6 construct: endogenous in cells; host or cells: L1210 cells
T6 sequence (P07607 whole entry): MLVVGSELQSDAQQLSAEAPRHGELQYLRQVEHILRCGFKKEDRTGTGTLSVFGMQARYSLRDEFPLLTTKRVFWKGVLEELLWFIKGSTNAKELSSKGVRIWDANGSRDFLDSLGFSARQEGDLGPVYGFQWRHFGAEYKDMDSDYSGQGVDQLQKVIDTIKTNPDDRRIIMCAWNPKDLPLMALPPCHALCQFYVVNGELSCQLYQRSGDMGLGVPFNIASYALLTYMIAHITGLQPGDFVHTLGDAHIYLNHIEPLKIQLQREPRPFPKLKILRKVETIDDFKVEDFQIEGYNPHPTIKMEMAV
Experimental: as §7

## O=c1ccn([C@@H]2O[C@H](CO)[C@@H](O)[C@@H]2F)c(=O)[nH]1 [FAU, 1-(2′Fluoro-2′deoxy-β-D-arabinofuranosyl)-uracil]
[1]
  amounts of FMAUMP or FMAUDP found intracellularly: trace amounts
CEM cells [2]
  FAUMP formed intracellularly: 0.96 ± 0.24 nmol/10^6 cells
  FMAUTP formed intracellularly: 2.30 ± 0.28 nmol/10^6 cells
CEM cells [2]; incorporated as FMAU
  DNA % incorp: 0.81 ± 0.10%
U-937 cells [3]
  FAUMP formed intracellularly: 2.70 ± 0.69 nmol/10^6 cells
  FMAUTP formed intracellularly: 1.99 ± 0.08 nmol/10^6 cells
U-937 cells [3]; incorporated as FMAU
  DNA % incorp: 0.50 ± 0.02%
K-562 cells [4]
  FAUMP formed intracellularly: 11.1 ± 0.9 nmol/10^6 cells
K-562 cells [4]; incorporated as FMAU
  DNA % incorp: 0.22 ± 0.002%
MOLT-4 cells [5]
  FMAUTP formed intracellularly: 1.92 ± 0.55 nmol/10^6 cells
MOLT-4 cells [5]; incorporated as FMAU
  DNA % incorp: 0.19 ± 0.01%
RAJI cells [6]
  FAUMP formed intracellularly: 0.95 ± 0.17 nmol/10^6 cells
RAJI cells [6]; incorporated as FMAU
  DNA % incorp: 0.09 ± 0.002%
[7]
  IC50 values relative to FMAU (fold higher): 10 fold
L1210 cells [8]
  growth inhibition: completely uninhibited
mice
  histopathologic examination of murine tissues (toxicity): no toxicity attributable to the drug treatment
L1210 cells [9]
  DNA % incorp: 0.08 ± 0.005%
[10]
  FAU concentration in plasma, maximum level: 750 µM
  FAU concentration in plasma, minimum level: 50 µM
CEM cells [11]; 100 μM, 72 hours continuous incubation
  growth inhibition: more than 50%
U-937 cells [12]
  growth inhibition: more than 50%
K-562 cells [13]; K-562, 100 μM, 72 hours continuous incubation
  growth inhibition: somewhat less inhibited
MOLT-4 cells [14]
  growth inhibition: somewhat less inhibited
RAJI cells [15]; 100 μM
  growth inhibition: completely uninhibited

## O=c1ccn([C@@H]2O[C@H](COP(=O)(O)O)[C@@H](O)[C@@H]2F)c(=O)[nH]1 [FAUMP, FAU monophosphate]
[16]
  rate of conversion to FMAUMP as % of the rate of dTMP formation from dUMP: about 1%
[17]
  rate of conversion to FMAUMP as % of the rate of dTMP formation from dUMP: 0.97-1.5%

## Cc1cn([C@H]2O[C@H](CO)[C@@H](O)[C@@H]2F)c(=O)[nH]c1=O [FMAU, 1-(2-deoxy-2-fluoro-alpha-D-arabinofuranosyl)thymine, reference compound]
L1210 cells [8]; Mus musculus
  inhibition at 100 µM: > 80%
CEM cells [11]; 0.3 μM (lowest concentration used), 72 hours
  effect on cell growth: substantial effect
CEM cells [11]; Homo sapiens, CCRF-CEM, 100 μM, 72 hours continuous incubation
  inhibition at 100 µM: > 80%
U-937 cells [12]; Homo sapiens
  inhibition at 100 µM: > 80%
K-562 cells [13]; Homo sapiens, K562, K-562, 100 μM, 72 hours continuous incubation
  inhibition at 100 µM: > 80%
K-562 cells [13]; K-562, 0.3 μM (lowest concentration used), 72 hours
  effect on cell growth: substantial effect
MOLT-4 cells [14]; Homo sapiens
  inhibition at 100 µM: > 80%
RAJI cells [15]; Homo sapiens
  inhibition at 100 µM: > 80%

## O=c1[nH]c(=O)n([C@H]2C[C@H](O)[C@@H](CO)O2)cc1I [IdUrd, Iododeoxyuridine]
[18]
  relative dehalogenation of IdUrd: ≤ 15%
[19]
  relative dehalogenation of IdUrd: ≥ 50%
[20]
  relative dehalogenation of IdUrd: ≥ 50%
[21]
  relative dehalogenation of IdUrd: ≥ 50%
[22]
  relative dehalogenation of IdUrd: ≤ 15%
